Experimental data as given in patent US10617664B2, “Brain derived PPARα ligands” (Rush University Medical Center, priority 2015, dated 2020).

Columns and labels:
[1] = GC-MS of GFP-affinity purified extract of transduced Ppara-null hippocampal neurons; assay type: binding, mouse; details: Vector Only; for Rel. Abundance (RA): normalized with internal standard
Procedure: Lentivirus-mediated de novo expression studies were performed, where wild type full-length (GFP-FLPpara) was overexpressed and three different LBD-mutated PPARα (GFP-Y314D, GFP-Y464D and GFP-Y314D/Y464D Ppara) recombinant proteins (FIG. 9D) were expressed in neurons followed by binding analyses with three endogenous ligands. Briefly, site directed mutagenesis was performed in the mouse PPARα with Y314 and Y464 residues replaced separately or together with aspartate (D). After that, the entire mouse GFP-Ppara gene (GFP-FLPpara) and three different mutated genes were cloned in the pLenti6/V5-TOPO lentiviral expression vector (FIG. 3D), packaged in lentivirus particle with HEK293FT cells, purified full length and mutated PPARα proteins in a GFP-affinity column, and finally thermal shift assays were performed in order to analyze their conformational stability. […] After 48 h of transduction, the cells were homogenized, passed through GFP-affinity column, eluted, fractionated with chloroform-methanol, and finally analyzed by GC-MS for the detection of ligands. […] On the other hand, mutation of the Y464 completely knocked down the ligand binding affinity as we observed profound loss of ligand binding in both lenti-GFP-Y464D-Ppara (FIG. 3K, FIG. 9K) and lenti-GFP-Y314D/Y464D-Ppara (FIG. 3L, FIG. 9L)-transduced Ppara-null neurons. Throughout these analyses, we used 2,4-bis (α, α-dimethyl benzyl) phenol as an internal standard (Supplementary FIG. 5A-F). We normalized peak area of different ligands with that of internal standard and then quantified the binding affinity of these ligands with different construct of PPARα by peak integration statistics (Table 1).
Either E18 cultured mouse hippocampal neurons or hippocampal tissue of 6-8 week old male C57/BL6 mice were homogenized in ice-cold nondetergent hypotonic buffer [10 mM HEPES (pH 7.9), 1.5 mM MgCl2, 10 mM KCl, […], protease and phosphatase inhibitor cocktail]. After 10 min of additional incubation in the hypotonic buffer, the homogenate was centrifuged at 8,000 g at 4° C. for 10 min. Next, the pellet was homogenized in ice-cold extraction buffer [10 mM HEPES (pH 7.9), 1.5 mM MgCl2, 0.21 M NaCl, 0.2 mM EDTA, 25% (v/v) glycerol, […], protease and phosphatase inhibitor cocktail], placed on a rotating shaker at 4° C. for 1 h, and then centrifuged at 18,000 g for 10 min. The supernatant (nuclear fraction) was incubated with 1.5 μg of GST PPARα LBD (Protein One) at 4° C. for 6 h in a rotating shaker. The reaction mixture was passed through glutathione column (Pierce® GST Spin Purification Kit), washed four times [50 mM Tris HCl (pH 7.4), 100 mM NaCl, protease and phosphatase inhibitor cocktail] and then eluted with free glutathione. The eluate was transferred to methanol:chloroform:water (4:3:1) mixture and then centrifuged at 14,000 rpm for 90 sec. The organic phase was collected, evaporated in the SpeedVac, reconstituted with 30 μL chloroform or acetonitrile, and then analyzed by GC-MS. In another case, E18 cultured hippocampal neurons were transduced with lentiviral particles conjugated with PPARα-LBD or different GFP-tagged mutated constructs followed by pulling down with anti-PPARα antibody or passing the extract through GFP-column of Vector Fusion-Aid GFP Kit (Cat # MB-0732). After that, the eluate was collected from the column with 5M NaCl solution, concentrated with PD-10 desalting column and analyzed for GC-MS.
A JEOL GCMate II (JEOL USA, Peabody Mass.) mass spectrometer was used in these experiments. The gas chromatograph was an Agilent 6890Plus (Wilmington Del.) equipped with a G1513A auto-injector with 100 vial sample tray connected to a G1512A controller. The gas chromatography column was a fused silica capillary column with a nonpolar 5% phenyl 95% dimethylpolysiloxane phase (Agilent HP-5 ms), 30 meters long, 0.25 mm internal diameter, 0.25 μm film thickness. […]

[2] = target: T1, de novo-synthesized PPARα (Mus musculus, UniProt P23204); test: Immunoprecipitation and GC-MS of Ppara-null hippocampal neurons infected with lenti full-length PPARα; assay type: binding; details: lenti-FLPara-transduced, not empty lenti-vector
T1 construct: infected with lentiviral particles of full-length PPARα and then immunoprecipitation performed; expressed in transfected cells; host or cells: Ppara-null mouse hippocampal neurons, lentiviral transduction
T1 sequence (P23204 1-468): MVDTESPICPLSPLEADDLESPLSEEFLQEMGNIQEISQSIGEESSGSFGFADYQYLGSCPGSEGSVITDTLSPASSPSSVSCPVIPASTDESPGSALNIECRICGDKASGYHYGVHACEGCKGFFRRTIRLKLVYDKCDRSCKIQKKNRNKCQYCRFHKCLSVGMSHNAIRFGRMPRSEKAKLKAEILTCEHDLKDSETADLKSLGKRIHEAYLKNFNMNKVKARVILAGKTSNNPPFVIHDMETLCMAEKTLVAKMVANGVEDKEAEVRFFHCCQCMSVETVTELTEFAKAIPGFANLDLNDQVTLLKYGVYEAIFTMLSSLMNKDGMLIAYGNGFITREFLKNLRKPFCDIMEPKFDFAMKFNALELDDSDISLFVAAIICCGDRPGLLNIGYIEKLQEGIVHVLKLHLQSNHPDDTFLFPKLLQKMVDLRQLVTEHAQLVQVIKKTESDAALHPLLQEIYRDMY
Procedure: Identification of novel nuclear ligands of PPARα in the hippocampus PPARs are nuclear receptors that require the binding of ligands for activation of gene expression. […] In order to identify these ligands, a gas chromatography mass spectrometric (GCMS) technology was adopted. Briefly, nuclear extracts were prepared form mouse hippocampus, incubated with a GST-tagged PPARα ligand binding domain (LBD), purified with affinity chromatography, reconstituted with chloroform or acetonitrile, and GCMS analyses preformed. (FIG. 1A, FIGS. 7A-C.). […] Therefore, next cultured Ppara-null hippocampal neurons were infected with lentiviral particles of full-length PPARα and then immunoprecipitation performed followed by GCMS analyses (FIG. 1J, FIG. 7G-H). […] The efficiency of gene transduction was measured by immunoblot analyses of cell extract with PPARα antibody (FIG. 7I. In addition, these analyses successfully identified a group of biological ligands of PPARα, which are endogenously produced in the hippocampus. Some of these detected compounds are sulfur-containing unknown compounds such as thiazoles (MW 220-240), thiosemicarbazones (MW 190-200) and thiazolidine esters (MW 250-270) (Table 2). However, these compounds were excluded from this study because of their unknown biosynthetic pathway, relatively poor match-factor (<65), and commercial unavailability. […]

Compound | % RA [1] | Adjusted peak area [1] | Rel. Abundance (RA) [1] | binding to de novo-synthesized PPARα (GC-MS) [2]
CCCCCCCCCCCCCCCC(N)=O [HEX, hexadecanamide] | 1.92% | 17632 | 0.01924 | found to be bound
CCCCCCCCC=CCCCCCCCC(N)=O [OCT, 9-octadecenamide] | 8.69% | 79623 | 0.08689 | found to be bound
